Our source for the IC50 values is ChEMBL document CHEMBL4354792, “Emerging modes-of-action in drug discovery” (Medchemcomm, 2019).

For experiment [1], the system named is Ribosome. As to the kind of experiment: Inhibition of 80s ribosome in CHOK1 cells assessed as reduction in PL-tagged PCSK9 expression incubated for over night by EFC kit method. It is filed as cell-based. Particulars: Cricetulus griseus, CHO-K1.
Experiment [2] is described as follows: Binding affinity to MMTV-PyMT mouse MALAT1 long non-coding RNA by FRET assay.

Structures are written as SMILES.

In the case of `COc1ccc(CCC(=O)N(c2nccc3ccccc23)[C@@H]2CCCNC2)cc1`, the IC50 in experiment [1] was determined as 4.8 µM.
`N=C(NC1CCN(Cc2ccccc2)CC1)c1ccc(-c2ccc(-c3ccc(C(=N)NC4CCN(Cc5ccccc5)CC4)cc3)o2)cc1` registered an IC50 in experiment [2] of 1.3 to 2.5 µM.

The term IC50 denotes the midpoint of a concentration-inhibition curve.
